# Test results published in article PMC11124525, “Pharmacokinetic–Pharmacodynamic Correlation Analysis of Rhodiola crenulata in Rats with Myocardial Ischemia” (Pharmaceuticals, 2024).
# Entries after “also recorded” stand apart in the source; their conditions may differ. Read-outs that look alike come from different tables or passages of the source.
# Experiments:
# [1] = PK of five RC components in sham operation administration (SDG, normal) rats after oral RC extract, HPLC-QQQ-MS/MS, DAS; type: in vivo, SD rats; conditions: rat, SDG rats, oral RC extract 2 g/kg, plasma, mean ± SD, n = 6; for AUC(0-t): read-out: AUC(0−t); for AUC(0-inf): read-out: AUC(0−∞); for CL/F: read-out: CLz/F (converted); for Cmax: read-out: Cmax; for MRT: read-out: MRT(0−); for MRT inf: read-out: MRT(0−∞); for Tmax: read-out: Tmax; for Vd/F: read-out: Vz/F; for half-life: read-out: t1/2z (converted)
# Procedure: (§1) The drug concentration in plasma was calculated using the standard curve, and the mean blood concentration was plotted against the time to obtain the mean blood concentration–time curve (Figure 4).
# (§2) The rat model of MI was made with Pit. The rats were divided into a sham operation group (SG), sham operation administration group (SDG), model group (MG), and model administration group (MDG) (n = 6 for each group). The MI model was prepared via an intraperitoneal injection (a single time) of Pit in the MG and MDG, with a dosage of 20 U/kg and a volume of 10 mL/kg. At the same time, the rats in the SG and SDG groups were given the same volume of saline in the same way.
# (§3) RC extract (2 g/kg, equivalent to human clinical equivalent dose) was given to rats via oral administration in SDG and MDG, and the same volume of normal saline was orally administered to the SG and MG. Rats were fasted for 12 h before the experiment. Blood was collected from the fundus venous plexus at 0, 5, 10, 15, 30, 45 min, 1, 2, 4, 6, 8, 12, and 24 h after in gavage, placed in a centrifuge tube impregnated with heparin sodium, centrifuged at 3500 rpm for 15 min, and then the plasma was collected and divided into two parts. One part was used for biochemical index determination and the other part was used to determine the content of pharmaceutical ingredients in vivo. After the experiment, the rats were sacrificed, and the hearts were placed in paraformaldehyde for histopathological analysis.
# (§4) The plasma sample of 100 μL was accurately absorbed, 50 μL internal standard solution (Nimodipine, 500 ng/mL) was added, then 300 μL acetonitrile precipitated protein was added, vortex for 10 min, placed under ultrasound for 3 min, centrifuged at 13,000 rpm for 10 min, and then the supernatant was transferred to another centrifuge tube. It was then concentrated until dry with a rotary evaporator. The residue was redissolved with 100 μL 50% acetonitrile, swirled for 1 min, placed under ultrasonic for 3 min, centrifuged at 13,000 rpm for 10 min, and the supernatant was taken for analysis.
# (§5) A validated HPLC-QQQ-MS/MS method was used for the determination of drug-derived components in plasma samples at different time points. The accompanying standard curve was substituted to calculate the content of the compounds to be measured, and then the PK parameters were calculated using DAS software (version 3.2.8), and the blood concentration–time curve was plotted using GraphPad Prism (version 8.0.2). PK behavior was compared between the sham operation and model group, and PK models were established, respectively.
# [2] = PK of five RC components in pituitrin-induced myocardial ischemia (MDG) rats after oral RC extract, HPLC-QQQ-MS/MS, DAS; type: in vivo, SD rats; conditions: for Change of CLZ/F in MDG compared with SDG / Change of Cmax in MDG compared with SDG: MDG vs SDG rats; for AUC(0-t) / AUC(0-inf) / CL/F / Cmax / MRT / MRT inf / Tmax / Vd/F / half-life: rat, plasma; for AUC(0-t): read-out: AUC(0−t); for AUC(0-inf): read-out: AUC(0−∞); for CL/F: read-out: CLz/F (converted); for Cmax: read-out: Cmax; for MRT: read-out: MRT(0−); for MRT inf: read-out: MRT(0−∞); for Vd/F: read-out: Vz/F; for half-life: read-out: t1/2z (converted)
# Procedure: as §1, §2, §3, §4, §5
# AST = experiment: PK-PD sigmoid-Emax model, PD index AST in MDG rats; type: in vivo, SD rats; parameters: unit not given beside the values
# CK = experiment: PK-PD sigmoid-Emax model, PD index CK in MDG rats; type: in vivo, SD rats; parameters: Emax: unit not given beside the values
# HBDH = experiment: PK-PD sigmoid-Emax model, PD index HBDH in MDG rats; type: in vivo, SD rats; parameters: unit not given beside the values
# SOD = experiment: PK-PD sigmoid-Emax model, PD index SOD in MDG rats; type: in vivo, SD rats; parameters: Ke0: unit not given beside the values
# [3] = rat
# Procedure: A series concentration mixed reference solution with different concentrations was added to 100 μL plasma, and was treated according to the method under Section 4.6 to obtain the matrix standard curve sample. Samples with concentrations of 400, 100, and 10 ng/mL, respectively, were taken as quality control (QC) samples of high, medium, and low concentrations (HQC, MQC, LQC). The method was validated, including linearity, inter-day/intra-day precision, repeatability, stability, extraction recovery, and matrix effect, according to FDA bioanalytical method validation guidelines.
# [4] = cited from earlier work
# LDH = experiment: PK-PD sigmoid-Emax model, PD index LDH in MDG rats
# Text: Subsequently, we incorporated the PK and PD data to conduct PK-PD modeling through DAS.
# Therefore, PK-PD correlation analysis was used in this study, linking dynamic concentration–time processes and effect–time profile relationships [20, 21, 22]. […] The model adopted in this study is the S-Emax model. In the equation, γ means the shape factor in the formula, affecting the slope and determining the steepness of the curve. Emax can provide the maximum response intensity, and ED50 is for evaluating the safety of the drug, which is understood as the amount of the drug that causes 50% of the maximum response intensity.
# Plasma creatine kinase (CK), hydroxybutyrate dehydrogenase (HBDH), lactate dehydrogenase (LDH), and superoxide dismutase (SOD) activity was determined using an automatic biochemical analyzer.
# The activity of the CK, HBDH, LDH, and SOD of plasma samples collected at different time points was determined using an automatic biochemical analyzer for PD index evaluation. […] Two compartmental methods were used, employing the drug and statistics, which was supplied by the Chinese Pharmacological Society. Then, the efficacy indicators were fitted in the PK-PD model.
# [5] = in vivo, MDG (myocardial ischemia) rats, oral RC extract 2 g/kg, mean ± SD, n = 6
# [6] = SD, po, 2 g/kg, MDG (myocardial ischemia) rats, oral RC extract 2 g/kg, mean ± SD, n = 6, read-out: Tmax
# [7] = SD, po, 2 g/kg, according to the PK results, group not given, oral RC extract, read-out: Tmax (approximate)
# [8] = MDG (myocardial ischemia) rats, oral RC extract 2 g/kg, mean ± SD, n = 6
compound,measurement,setting,value
"O=c1c(O)c(-c2ccc(O)cc2)oc2cc(O)cc(O)c12 [Kaempferol, kaempferol]",AUC(0-t),[1]; in vivo,306 ± 30.5 ng·h/mL
same,AUC(0-inf),[1]; in vivo,427 ± 95.4 ng·h/mL
same,CL/F,[1]; in vivo,203 mL/min/kg
same,Cmax,[1]; in vivo,31.2 ± 1.53 ng/mL
same,MRT,[1]; in vivo,8.54 ± 0.55 h
same,MRT inf,[1]; in vivo,19.4 ± 9.37 h
same,Tmax,[1]; in vivo,1.67 ± 1.21 h
same,Vd/F,[1]; in vivo,224 ± 107 L/kg
same,half-life,[1]; in vivo,14.1 ± 8.42 h
same,Change of CLZ/F in MDG compared with SDG,[2]; oral RC extract 2 g/kg,marked decreasing tendency; also recorded: decreased significantly
same,Change of Cmax in MDG compared with SDG,[2]; oral RC extract 2 g/kg,increased significantly; also recorded: significantly increased
same,AUC(0-t),[2]; [5],354 ± 50.4 ng·h/mL
same,AUC(0-inf),[2]; [5],645 ± 179 ng·h/mL
same,CL/F,[2]; [5],140 mL/min/kg
same,Cmax,[2]; [5],38.4 ± 4.92 ng/mL
same,MRT,[2]; [5],9.05 ± 0.7 h
same,MRT inf,[2]; [5],30.9 ± 14.1 h
same,Tmax,"[2]; in vivo, MDG (myocardial ischemia) rats, oral RC extract 2 g/kg, mean ± SD, n = 6, read-out: Tmax",0.75 h
same,Vd/F,[2]; [5],245 ± 67 L/kg
same,half-life,[2]; [5],22.7 ± 10.7 h
same,Emax,AST,1422.742
same,Ke0,AST,2.998
same,Emax,CK,2736.472
same,Ke0,CK,2.998
same,Emax,HBDH,6565.084
same,Ke0,HBDH,0.928
same,Emax,SOD,68.398
same,Ke0,SOD,0.115
same,Stability RE (%),[3]; 10 ng/mL,102.9%
same,Stability RE (%),[3]; 400 ng/mL,94.57%
same,Stability RE (%),"[3]; 48 h, 10 ng/mL",101.5%
same,Stability RE (%),"[3]; 48 h, 50 ng/mL",90.22%
same,Stability RE (%),"[3]; 48 h, 400 ng/mL",92.55%
same,Stability RE (%),"[3]; 10 days, 50 ng/mL",99.12%
same,Stability RE (%),"[3]; 10 days, 400 ng/mL",100.4%
same,"AUC, MRT, t1/2, and Cmax in modeled rats",[4]; modeled rats (disease state),increased
same,Clearance in modeled rats,[4]; modeled rats (disease state),decreased
same,Emax,LDH,599.812
"OC[C@H]1O[C@@H](OCCc2ccc(O)cc2)[C@H](O)[C@@H](O)[C@@H]1O [Salidroside, salidroside]",AUC(0-t),[1],5710 ± 321 ng·h/mL
same,AUC(0-inf),[1],8350 ± 2310 ng·h/mL
same,CL/F,[1],10.7 mL/min/kg
same,Cmax,[1],1010 ± 84.2 ng/mL
same,MRT,[1],7.14 ± 0.51 h
same,Tmax,[1],0.75 ± 0.16 h
same,Vd/F,[1],15.2 ± 8.77 L/kg
same,half-life,[1],19.9 ± 16 h
same,Change of Cmax in MDG compared with SDG,[2]; oral RC extract 2 g/kg,increased significantly; also recorded: significantly increased
same,Tmax,[2]; [6],0.83 ± 0.13 h
same,Tmax,[2]; [7],~1 h
same,AUC(0-t),[2]; [8],7790 ± 1160 ng·h/mL
same,AUC(0-inf),[2]; [8],10000 ng·h/mL
same,CL/F,[2]; [8],8.67 mL/min/kg
same,Cmax,[2]; [8],1350 ± 133 ng/mL
same,MRT,[2]; [8],6.7 ± 0.61 h
same,MRT inf,[2]; [8],16.7 ± 9.83 h
same,Vd/F,[2]; [8],10.7 ± 7.46 L/kg
same,half-life,[2]; [8],15.4 ± 11.2 h
same,Emax,AST,1091.001
same,Ke0,AST,2.821
same,Emax,CK,2288.494
same,Ke0,CK,2.698
same,Emax,HBDH,4898.547
same,Ke0,HBDH,0.46
same,Emax,SOD,71.79
same,Ke0,SOD,0.025
same,Stability RE (%),[3]; 10 ng/mL,90.22%
same,Stability RE (%),[3]; 400 ng/mL,99.82%
same,Stability RE (%),"[3]; 48 h, 10 ng/mL",89.72%
same,Stability RE (%),"[3]; 48 h, 50 ng/mL",90.35%
same,Stability RE (%),"[3]; 48 h, 400 ng/mL",98.56%
same,Stability RE (%),"[3]; 10 days, 10 ng/mL",88.35%
same,Stability RE (%),"[3]; 10 days, 50 ng/mL",100.1%
same,Stability RE (%),"[3]; 10 days, 400 ng/mL",97.63%
same,Systemic exposure in hypoxia,[4]; hypoxia,increased significantly
same,Bioavailability under pathological conditions,[4],increased significantly
same,Emax,LDH,482.587
same,Ke0,LDH,2.476
"OCCc1ccc(O)cc1 [Tyrosol, tyrosol]",AUC(0-t),[1],653 ± 63.2 ng·h/mL
same,AUC(0-inf),[1],729 ± 49.2 ng·h/mL
same,CL/F,[1],115 mL/min/kg
same,Cmax,[1],132 ± 12.6 ng/mL
same,MRT,[1],5.59 ± 0.5 h
same,MRT inf,[1],9.86 ± 5.68 h
same,Tmax,[1],1.17 ± 0.41 h
same,Vd/F,[1],97 ± 70.2 L/kg
same,half-life,[1],10 ± 7.64 h
same,Change of CLZ/F in MDG compared with SDG,[2]; oral RC extract 2 g/kg,marked decreasing tendency; also recorded: decreased significantly
same,Tmax,[2]; [6],0.96 ± 0.1 h
same,Tmax,[2]; [7],~1 h
same,AUC(0-t),[2]; [8],837 ± 66.8 ng·h/mL
same,AUC(0-inf),[2]; [8],1100 ± 258 ng·h/mL
same,CL/F,[2]; [8],79.2 mL/min/kg
same,Cmax,[2]; [8],143.4 ± 1.41 ng/mL
same,MRT,[2]; [8],6.54 ± 0.91 h
same,MRT inf,[2]; [8],16.8 ± 9.96 h
same,Vd/F,[2]; [8],94.4 ± 44.4 L/kg
same,half-life,[2]; [8],15.6 ± 0.79 h
same,Emax,AST,1213.835
same,Ke0,AST,2.998
same,Emax,CK,2289.882
same,Ke0,CK,2.998
same,Emax,HBDH,7149.416
same,Ke0,HBDH,0.724
same,Emax,SOD,68.804
same,Ke0,SOD,0.043
same,Stability RE (%),[3]; 10 ng/mL,94.31%
same,Stability RE (%),[3]; 50 ng/mL,96.93%
same,Stability RE (%),[3]; 400 ng/mL,97.75%
same,Stability RE (%),"[3]; 48 h, 10 ng/mL",85.44%
same,Stability RE (%),"[3]; 48 h, 50 ng/mL",90.28%
same,Stability RE (%),"[3]; 10 days, 10 ng/mL",99.52%
same,Stability RE (%),"[3]; 10 days, 400 ng/mL",89.70%
same,Bioavailability under pathological conditions,[4],increased significantly
same,Emax,LDH,483.057
same,Ke0,LDH,2.848
rhodiosin,Emax,AST,1084.02
same,Ke0,AST,2.998
same,Emax,CK,2289.293
same,Ke0,CK,2.998
same,Emax,HBDH,4335.008
same,Ke0,HBDH,0.469
same,Emax,SOD,72.933
same,Ke0,SOD,0.055
same,Emax,LDH,484.31
same,Ke0,LDH,2.998
